Where two headings read alike, the source gives them in different places.
Key:
[1] = Equilibrium (binding) constant Keq of aryl hindered ureas by 1H NMR amine exchange in d-chloroform; assay type: physicochemical; conditions: room temperature
Procedure: (§1) We designed a set of aryl ureas with distinguished electronic effect on the conjugated phenyl ring (Table 1) and the corresponding Keq were studied by ^1H NMR through exchanging of the urea with a set of bulky amines in d-chloroform. The equilibrium constant of the aryl urea bond increases as the bulkiness of the substitution on the amine decreases. […] The dissociation constant k−1 was measured by exchange study of the ureas with another amine and calculated through linear regression. Remarkably, the amine exchange of the tBEU could reach equilibrium within 20 minutes at room temperature in d-chloroform. The k−1 of tBEU with aryl substitution is two orders of magnitudes larger than the reported aliphatic urea (Table 1) and among the fastest dynamic chemistries reported so far. […] The substituent on the aryl group can remotely affect the HUB through electronic effects, thus offering an extra tunability on the Keq and k−1 of the bond, which is unprecedented in hindered urea chemistry. The large value of Keq also makes it possible to prepare large molecular weight aromatic hindered urea materials with quantitative conversion.
We designed a set of aryl ureas with distinguished electronic effect on the conjugated phenyl ring (Table 1) and the corresponding Keq were studied by ^1H NMR through exchanging of the urea with a set of bulky amines in d-chloroform. The equilibrium constant of the aryl urea bond increases as the bulkiness of the substitution on amine increases. […] The dissociation constant k−1 was measured by exchanging of the ureas with another amine and calculated through linear regression. […] In addition, the calculated k1 is larger than 10^5 M^−1·h^−1 indicating the urea formation can be completed within seconds upon mixing. […] The large value of Keq make it possible to prepare chemically stable aromatic hindered urea materials with quantitative conversion.
The binding constant (Keq) was measured through indirect method used previously. […] Briefly, the of Keq of the equilibrium was measured in d-chloroform and the Keq of each aryl urea was calculated accordingly. […]

[2] = Dissociation constant k−1 of hindered ureas by amine exchange experiment (1H NMR, d-chloroform); assay type: physicochemical; conditions: room temperature
Procedure: as §1
The dissociation constant (k−1) of corresponding hinder ureas were determined through exchange experiment. Briefly, a d-chloroform (550 μL) solution of tBEU (0.050 mmol, ˜12 mg) was mixed with N-methyl-t-butyl-amine (1 eq). Then the mixture was monitored with ^1H NMR. The ratio of the two ureas was quantified by integration of the methyl/methylene hydrogen adjacent to the nitrogen atom. Linear regression of ln
[formula] ˜t giving the slope as the dissociation constant (k−1).
The method for tBEU was used except that 10 equivalent t-butylamine or n-butyl amine was used.
The dynamic behavior of the aromatic urea was then investigated by exchanging the tBEU with methyl-t-butylamine and the relative concentration of all species were monitored by ^1H NMR. […] In contrast, the aliphatic tBEU requires several days to reach equilibrium at 37° C. Through linear regression of the exchange component, the dissociate rate of the ureas were determined to be 5-12 h^−1 at room temperature, which is two order of magnitude higher than the aliphatic counterpart. […] SeeYing, H.; Zhang, Y.; Cheng, J. Nat. Commun. 2014, 5, 3218, which is incorporated by reference herein in its entirety.

[3] = HPLC analysis of Ph-tBEU hydrolysis kinetics in 1:1 DMSO-aqueous buffer at various pH; assay type: physicochemical
Procedure: FIGS. 1A to 1C depict the hydrolysis of phenyl-N-tetrabutyl-N-ethyl urea (Ph-tBEU) in 1:1 DMSO-aqueous buffer at various pH conditions at 37° C. as analyzed by HPLC. […] The dotted line marks the measured k−1 of the Ph-tBEU under the same condition through exchange with 10 equivalents of t-butyl amine.
The hydrolysis of aryl tBEU under different pH conditions was then studied in 1:1 DMSO-aqueous buffer solution at 23° C. […] Kinetic analysis of the hydrolytic kinetics confirmed that the overall urea degradation rate is determined by the urea dissociation and can be expressed as
HPLC Analysis of pH-tBEU Hydrolysis Kinetics in 50:50 DMSO-H2O at 37° C.
Ph-tBEU stock solution was prepared in DMSO as 2 mg/mL. The solution was diluted with 1:1 DMSO/buffer to 20 μg/mL ([…]) and incubated at 37° C. At specified time, the solution was analyzed by HPLC to quantify the remaining tBEU content by standard calibration curve (λabs=264 nm).
The standard sample of Ph-tBEU was prepared by diluting the stock solution with acetonitrile to a 2-fold serial dilution and analyzed instantly after preparation. The pH 1, 7, 10 buffers were prepared by adding acid/base to 1*PBS solution. pH 4 buffer was prepared by citric acid-Na2HPO4 (0.1 M). The pH of all the buffers were confirmed by pH meter prior to conducting the experiments.

[4] = aliphatic HUB, adapted from Ying et al. Nat. Commun. 2014; cited from earlier work
[5] = cited from earlier work

## CCN(C(=O)Nc1ccc(OC)cc1)C(C)(C)C [compound 1]
[1]
  Keq: 81000 M⁻¹
[2]
  k1 (calculated as Keq × k−1): 250 M⁻¹ s⁻¹
  k−1 (dissociation rate): 11.2 h⁻¹

## CCN(C(=O)Nc1ccccc1)C(C)(C)C [compound 2, phenyl-N-tetrabutyl-N-ethyl urea]
[1]
  Keq: 360000 M⁻¹
[2]
  k1 (calculated as Keq × k−1): 889 M⁻¹ s⁻¹
  k−1 (dissociation rate): 8.9 h⁻¹
[3]; 23° C. as printed
  apparent hydrolysis constant kobs: 0.17 h⁻¹
[3]; pH ranging from 3-11
  pH dependence of observed hydrolysis constant kobs: independent of pH

## CCN(C(=O)Nc1ccc([N+](=O)[O-])cc1)C(C)(C)C [compound 3]
[1]
  Keq: 6.8e+06 M⁻¹
[2]
  k1 (calculated as Keq × k−1): 10800 M⁻¹ s⁻¹
  k−1 (dissociation rate): 5.7 h⁻¹

## C=C(C)C(=O)OCCNC(=O)N(CC)C(C)(C)C [compound 4]
[2]
  k1 (calculated as Keq × k−1): 9.17 M⁻¹ s⁻¹
[4]
  Keq: 790000 M⁻¹
[5]; aliphatic tBEU, 37° C.
  time for exchange to reach equilibrium: several days
[5]; reported aliphatic urea
  k−1 (dissociation rate): 0.042 h⁻¹
